Measurements: article PMC5218480 (PLoS ONE, 2017)

System: MV-4-11 cells
Experiment: Gene expression microarray analysis (Affymetrix PrimeView) and GSEA
Type: cell-based, human
Set-up: RFU PODN (11730768_x_at) / Fold change /veh PODN (11730768_x_at) / RFU LINC00158 (11744669_a_at) / Fold change /veh LINC00158 (11744669_a_at) / RFU DUSP10 (11751237_a_at) / Fold change /veh DUSP10 (11751237_a_at) / RFU ID3 (11757404_x_at) / Fold change /veh ID3 (11757404_x_at) / RFU PLEKHG5 (11737974_s_at) / Fold change /veh PLEKHG5 (11737974_s_at) / RFU LRRC4B (11730491_at) / Fold change /veh LRRC4B (11730491_at) / RFU GIMAP4 (11747438_a_at) / Fold change /veh GIMAP4 (11747438_a_at) / RFU KRT8 (11758183_x_at) / Fold change /veh KRT8 (11758183_x_at) / RFU CNN1 (11734310_a_at) / Fold change /veh CNN1 (11734310_a_at) / RFU VPS37D (11726825_at) / Fold change /veh VPS37D (11726825_at) / RFU C10orf10 (11716522_x_at) / Fold change /veh C10orf10 (11716522_x_at) / RFU KIR2DL2 /// KIR2DL4 /// KIR2DL5A /// KIR2DL5B /// KIR2DS1 /// KIR2DS2 /// KIR2DS3 /// KIR2DS4 /// KIR3DL3 /// KIR3DL3 /// KIR3DS1 (11738374_at) / Fold change /veh KIR2DL2 /// KIR2DL4 /// KIR2DL5A /// KIR2DL5B /// KIR2DS1 /// KIR2DS2 /// KIR2DS3 /// KIR2DS4 /// KIR3DL3 /// KIR3DL3 /// KIR3DS1 (11738374_at) / RFU C1QL1 (11718748_at) / Fold change /veh C1QL1 (11718748_at) / RFU TMPRSS4 (11747572_a_at) / Fold change /veh TMPRSS4 (11747572_a_at) / RFU HAMP (11756126_x_at) / Fold change /veh HAMP (11756126_x_at) / RFU RNFT2 (11725882_a_at) / Fold change /veh RNFT2 (11725882_a_at) / RFU NR4A2 (11747474_a_at) / Fold change /veh NR4A2 (11747474_a_at) / RFU ABCC12 (11746883_a_at) / Fold change /veh ABCC12 (11746883_a_at) / RFU TMEM136 (11760407_x_at) / Fold change /veh TMEM136 (11760407_x_at) / RFU CLDN22 /// WWC2 (11732394_at) / Fold change /veh CLDN22 /// WWC2 (11732394_at) / RFU HLA-DPB1 (11760878_x_at) / Fold change /veh HLA-DPB1 (11760878_x_at) / RFU SPINT1 (11716480_a_at) / Fold change /veh SPINT1 (11716480_a_at) / RFU GAP43 (11754022_s_at) / Fold change /veh GAP43 (11754022_s_at) / RFU A4GNT (11735810_at) / Fold change /veh A4GNT (11735810_at) / RFU PRB3 (11715151_x_at) / Fold change /veh PRB3 (11715151_x_at) / RFU TUBB4B (11761932_at) / Fold change /veh TUBB4B (11761932_at) / RFU CAPN14 (11732068_a_at) / Fold change /veh CAPN14 (11732068_a_at) / RFU TMCC2 (11721928_a_at) / Fold change /veh TMCC2 (11721928_a_at) / RFU IRGQ (11745062_a_at) / Fold change /veh IRGQ (11745062_a_at) / RFU FAM174B (11720279_a_at) / Fold change /veh FAM174B (11720279_a_at) / RFU TMPRSS4 (11748680_a_at) / Fold change /veh TMPRSS4 (11748680_a_at) / RFU FAM212B (11763350_a_at) / Fold change /veh FAM212B (11763350_a_at) / RFU PLEKHG5 (11743358_a_at) / Fold change /veh PLEKHG5 (11743358_a_at) / RFU ZSCAN30 (11745921_a_at) / Fold change /veh ZSCAN30 (11745921_a_at) / RFU CMKLR1 (11741424_a_at) / Fold change /veh CMKLR1 (11741424_a_at) / RFU LOC101060620 /// MAPK8IP1 (11723275_at) / Fold change /veh LOC101060620 /// MAPK8IP1 (11723275_at) / RFU SPTSSB (11747773_x_at) / Fold change /veh SPTSSB (11747773_x_at) / RFU PRSS12 (11739890_at) / Fold change /veh PRSS12 (11739890_at) / RFU BIN1 (11741810_x_at) / Fold change /veh BIN1 (11741810_x_at) / RFU WNT11 (11732464_a_at) / Fold change /veh WNT11 (11732464_a_at) / RFU C10orf10 (11716521_a_at) / Fold change /veh C10orf10 (11716521_a_at) / RFU C5orf56 (11738089_at) / Fold change /veh C5orf56 (11738089_at) / RFU CYB561 (11721691_x_at) / Fold change /veh CYB561 (11721691_x_at) / RFU ANKRD19P (11752326_a_at) / Fold change /veh ANKRD19P (11752326_a_at) / RFU OR2T12 /// OR2T33 /// OR2T8 (11738714_s_at) / Fold change /veh OR2T12 /// OR2T33 /// OR2T8 (11738714_s_at) / RFU VCAN (11748164_a_at) / Fold change /veh VCAN (11748164_a_at) / RFU JSRP1 (11732532_at) / Fold change /veh JSRP1 (11732532_at) / RFU KRTAP10-11 (11738290_x_at) / Fold change /veh KRTAP10-11 (11738290_x_at) / RFU MYO3A (11730013_a_at) / Fold change /veh MYO3A (11730013_a_at) / RFU EBF3 (11725865_a_at) / Fold change /veh EBF3 (11725865_a_at) / RFU CAMK2N1 (11719241_x_at) / Fold change /veh CAMK2N1 (11719241_x_at) / RFU C5orf56 (11738088_a_at) / Fold change /veh C5orf56 (11738088_a_at) / RFU OLFML3 (11715873_a_at) / Fold change /veh OLFML3 (11715873_a_at) / RFU LOC100653217 /// NTM (11731650_a_at) / Fold change /veh LOC100653217 /// NTM (11731650_a_at) / RFU MAPK11 (11762145_a_at) / Fold change /veh MAPK11 (11762145_a_at) / RFU FIZ1 (11724087_x_at) / Fold change /veh FIZ1 (11724087_x_at) / RFU OASL (11726364_x_at) / Fold change /veh OASL (11726364_x_at) / RFU SOX15 (11748057_x_at) / Fold change /veh SOX15 (11748057_x_at) / RFU CD79A (11719716_a_at) / Fold change /veh CD79A (11719716_a_at) / RFU HIST1H1D (11736915_at) / Fold change /veh HIST1H1D (11736915_at) / RFU CASKIN2 (11723855_a_at) / Fold change /veh CASKIN2 (11723855_a_at) / RFU LOC730098 (11760151_x_at) / Fold change /veh LOC730098 (11760151_x_at) / RFU OR4N2 (11742367_at) / Fold change /veh OR4N2 (11742367_at) / RFU PRRT2 (11749266_a_at) / Fold change /veh PRRT2 (11749266_a_at) / RFU SNX32 (11753110_a_at) / Fold change /veh SNX32 (11753110_a_at) / RFU CDHR5 (11726645_a_at) / Fold change /veh CDHR5 (11726645_a_at) / RFU RCAN1 (11760418_a_at) / Fold change /veh RCAN1 (11760418_a_at) / RFU FAM167A (11723789_a_at) / Fold change /veh FAM167A (11723789_a_at) / RFU FAM26E (11764081_at) / Fold change /veh FAM26E (11764081_at) / RFU ISYNA1 (11749810_s_at) / Fold change /veh ISYNA1 (11749810_s_at) / RFU ACY1 (11761880_at) / Fold change /veh ACY1 (11761880_at) / RFU 11764098_at / Fold change /veh 11764098_at / RFU SAMD14 (11745864_x_at) / Fold change /veh SAMD14 (11745864_x_at) / RFU NPB (11741838_a_at) / Fold change /veh NPB (11741838_a_at) / RFU TMPRSS6 (11731388_a_at) / Fold change /veh TMPRSS6 (11731388_a_at) / RFU KRTAP10-2 (11738614_at) / Fold change /veh KRTAP10-2 (11738614_at) / RFU ARHGAP8 /// PRR5-ARHGAP8 (11727945_x_at) / Fold change /veh ARHGAP8 /// PRR5-ARHGAP8 (11727945_x_at) / RFU KRTAP5-7 /// NADSYN1 (11734609_at) / Fold change /veh KRTAP5-7 /// NADSYN1 (11734609_at) / RFU RASL12 (11751679_a_at) / Fold change /veh RASL12 (11751679_a_at) / RFU CDKN2B (11736163_a_at) / Fold change /veh CDKN2B (11736163_a_at) / RFU PRF1 (11729649_at) / Fold change /veh PRF1 (11729649_at) / RFU, ZNF638 /// ZNF638-IT1 / Fold change vs veh, ZNF638 /// ZNF638-IT1 / RFU, PANK3 / Fold change vs veh, PANK3 / RFU, SH3YL1 / Fold change vs veh, SH3YL1 / RFU, ZEB2 / Fold change vs veh, ZEB2 / RFU, NRIP1 / Fold change vs veh, NRIP1 / RFU, PTTG1IP / Fold change vs veh, PTTG1IP / RFU, CAPN2 / Fold change vs veh, CAPN2 / RFU, MED14 / Fold change vs veh, MED14 / RFU, SNORA58 / Fold change vs veh, SNORA58 / RFU, C1orf63 / Fold change vs veh, C1orf63 / RFU, LRRFIP1 / Fold change vs veh, LRRFIP1 / RFU, NDUFAF7 / Fold change vs veh, NDUFAF7 / RFU, SLC12A2 / Fold change vs veh, SLC12A2 / RFU, IBTK / Fold change vs veh, IBTK / RFU, ESF1 / Fold change vs veh, ESF1 / Fold change vs veh, TMEM50B / RFU, TAOK1 / Fold change vs veh, TAOK1 / RFU, ACBD3 / Fold change vs veh, ACBD3 / RFU, TMA16 / Fold change vs veh, TMA16 / RFU, RWDD3 / Fold change vs veh, RWDD3 / RFU, BCAT1 / Fold change vs veh, BCAT1 / RFU, EDEM3 / Fold change vs veh, EDEM3 / RFU, TMEM33 / Fold change vs veh, TMEM33 / RFU, WDR75 / Fold change vs veh, WDR75 / RFU, AHCTF1 / Fold change vs veh, AHCTF1 / RFU, TFRC / Fold change vs veh, TFRC / RFU, ZDHHC17 / Fold change vs veh, ZDHHC17 / RFU, NOM1 / Fold change vs veh, NOM1 / RFU, ARL8B / Fold change vs veh, ARL8B / RFU, ZBTB11 / Fold change vs veh, ZBTB11 / RFU, TAMM41 / Fold change vs veh, TAMM41 / RFU, KIAA1704 /// LOC100996395 / Fold change vs veh, KIAA1704 /// LOC100996395 / RFU, ING1 / Fold change vs veh, ING1 / RFU, TRMT61B / Fold change vs veh, TRMT61B / RFU, FUBP3 / Fold change vs veh, FUBP3 / RFU, TP53 / Fold change vs veh, TP53 / RFU, TNKS2 / Fold change vs veh, TNKS2 / RFU, ZFP14 / Fold change vs veh, ZFP14 / RFU, ACTR2 / Fold change vs veh, ACTR2 / RFU, PPP3R1 / Fold change vs veh, PPP3R1 / RFU, PIK3R1 / Fold change vs veh, PIK3R1 / RFU, HNRNPA1 / Fold change vs veh, HNRNPA1 / RFU, RNF170 / Fold change vs veh, RNF170 / RFU, ZNF28 / Fold change vs veh, ZNF28 / RFU, RNGTT / Fold change vs veh, RNGTT / RFU, OGT / Fold change vs veh, OGT / RFU, BRD1 / Fold change vs veh, BRD1 / RFU, MARS / Fold change vs veh, MARS / RFU, ZNF655 / Fold change vs veh, ZNF655 / RFU, FAHD1 / Fold change vs veh, FAHD1 / RFU, BDP1 / Fold change vs veh, BDP1 / RFU, LRRCC1 / Fold change vs veh, LRRCC1 / RFU, ARID1A / Fold change vs veh, ARID1A / RFU, ZNF146 / Fold change vs veh, ZNF146 / RFU, ZNF330 / Fold change vs veh, ZNF330 / RFU, GPN3 / Fold change vs veh, GPN3 / RFU, C9orf123 / Fold change vs veh, C9orf123 / RFU, N4BP2L2 / Fold change vs veh, N4BP2L2 / RFU, ARFIP1 / Fold change vs veh, ARFIP1 / RFU, FAM179B / Fold change vs veh, FAM179B / RFU, BCL10 / Fold change vs veh, BCL10 / RFU, UHRF1BP1L / Fold change vs veh, UHRF1BP1L / RFU, BET1 / Fold change vs veh, BET1 / RFU, CNOT2 / Fold change vs veh, CNOT2 / RFU, ZNF268 / Fold change vs veh, ZNF268 / Fold change vs veh, ZNF507 / RFU, DGCR2 / Fold change vs veh, DGCR2 / RFU, WDSUB1 / Fold change vs veh, WDSUB1 / Fold change vs veh, HSP90B1 /// MIR3652 / RFU, ADSS / Fold change vs veh, ADSS / RFU, GK / Fold change vs veh, GK / RFU, ZNF148 / Fold change vs veh, ZNF148 / RFU, TAF9 / Fold change vs veh, TAF9 / RFU, SLC1A5 / Fold change vs veh, SLC1A5 / RFU, SLMO2 / Fold change vs veh, SLMO2 / RFU, ABCC4 / Fold change vs veh, ABCC4 / RFU, LOC101060439 /// RAP1B / Fold change vs veh, LOC101060439 /// RAP1B / RFU, RFX7 / Fold change vs veh, RFX7 / RFU, GTPBP10 / Fold change vs veh, GTPBP10 / RFU, CNEP1R1 / Fold change vs veh, CNEP1R1 / RFU, BIVM-ERCC5 /// ERCC5 / Fold change vs veh, BIVM-ERCC5 /// ERCC5 / RFU, ILF3 / Fold change vs veh, ILF3 / RFU 11762660_at / Fold change /veh 11762660_at / RFU VCAN (11757783_s_at) / Fold change /veh VCAN (11757783_s_at) / RFU DDX43 (11728927_at) / Fold change /veh DDX43 (11728927_at) / RFU KRT8 (11758188_x_at) / Fold change /veh KRT8 (11758188_x_at) / RFU NKD1 (11759106_at) / Fold change /veh NKD1 (11759106_at) / RFU SRD5A1 (11742802_a_at) / Fold change /veh SRD5A1 (11742802_a_at) / RFU TPSAB1 /// TPSB2 (11721975_s_at) / Fold change /veh TPSAB1 /// TPSB2 (11721975_s_at) / RFU GSTM3 (11746129_a_at) / Fold change /veh GSTM3 (11746129_a_at) / RFU IL23R (11737362_x_at) / Fold change /veh IL23R (11737362_x_at) / RFU TMEM51 (11727254_a_at) / Fold change /veh TMEM51 (11727254_a_at) / RFU PIWIL2 (11732686_x_at) / Fold change /veh PIWIL2 (11732686_x_at) / RFU ORM1 (11744905_x_at) / Fold change /veh ORM1 (11744905_x_at) / RFU CCDC152 (11743942_at) / Fold change /veh CCDC152 (11743942_at) / RFU ECM1 (11717891_a_at) / Fold change /veh ECM1 (11717891_a_at) / RFU IL23R (11748794_a_at) / Fold change /veh IL23R (11748794_a_at) / RFU TNFAIP8L3 (11732012_x_at) / Fold change /veh TNFAIP8L3 (11732012_x_at) / RFU MBOAT4 (11741988_at) / Fold change /veh MBOAT4 (11741988_at) / RFU 11764193_at / Fold change /veh 11764193_at / RFU TMEM53 (11763286_at) / Fold change /veh TMEM53 (11763286_at) / RFU MAGEB2 (11727129_at) / Fold change /veh MAGEB2 (11727129_at) / RFU TMEM200A (11744735_a_at) / Fold change /veh TMEM200A (11744735_a_at) / RFU CCDC152 (11751479_a_at) / Fold change /veh CCDC152 (11751479_a_at) / RFU FAM211A (11726209_a_at) / Fold change /veh FAM211A (11726209_a_at) / RFU RGS16 (11746705_a_at) / Fold change /veh RGS16 (11746705_a_at) / RFU VCAN (11755009_s_at) / Fold change /veh VCAN (11755009_s_at) / RFU RHOB (11743442_s_at) / Fold change /veh RHOB (11743442_s_at) / RFU RGS16 (11720943_a_at) / Fold change /veh RGS16 (11720943_a_at) / RFU RGS16 (11720944_at) / Fold change /veh RGS16 (11720944_at) / RFU, VPS4B / Fold change vs veh, VPS4B / RFU, CREB1 / Fold change vs veh, CREB1 / RFU, DNAJC13 / Fold change vs veh, DNAJC13 / RFU, GNAQ / Fold change vs veh, GNAQ / RFU, CDK5R1 / Fold change vs veh, CDK5R1 / RFU, ZRANB3 / Fold change vs veh, ZRANB3 / RFU, CUL4A / Fold change vs veh, CUL4A / RFU, CCNY / Fold change vs veh, CCNY / RFU, UFL1 / Fold change vs veh, UFL1 / RFU, COG3 / Fold change vs veh, COG3 / RFU, DIAPH2 / Fold change vs veh, DIAPH2 / RFU, SKA2 / Fold change vs veh, SKA2 / RFU, AFF3 / Fold change vs veh, AFF3 / RFU, LMF1 / Fold change vs veh, LMF1 / RFU, IPO11 / Fold change vs veh, IPO11 / RFU, DFFB / Fold change vs veh, DFFB / RFU, FOXP1 / Fold change vs veh, FOXP1 / RFU, CARD8 / Fold change vs veh, CARD8 / RFU, STRN3 / Fold change vs veh, STRN3 / RFU, ADK / Fold change vs veh, ADK / RFU, RASSF2 / Fold change vs veh, RASSF2 / RFU, WIPF1 / Fold change vs veh, WIPF1 / RFU, LARP1B / Fold change vs veh, LARP1B / RFU, RASA1 / Fold change vs veh, RASA1 / RFU, RB1 / Fold change vs veh, RB1 / RFU, PPFIA1 / Fold change vs veh, PPFIA1 / RFU, MAT2A / Fold change vs veh, MAT2A / RFU, CCT5 / Fold change vs veh, CCT5 / RFU, WDR92 / Fold change vs veh, WDR92 / RFU, CUX1 / Fold change vs veh, CUX1 / RFU, TTC7A / Fold change vs veh, TTC7A / RFU, TMEM135 / Fold change vs veh, TMEM135 / RFU, DEPTOR / Fold change vs veh, DEPTOR / RFU, CPM / Fold change vs veh, CPM / RFU, DNAJB6 / Fold change vs veh, DNAJB6 / RFU, CACNA2D3 / Fold change vs veh, CACNA2D3 / RFU, DTX4 / Fold change vs veh, DTX4 / RFU, TFCP2 / Fold change vs veh, TFCP2 / RFU, GMCL1 /// GMCL1P1 / Fold change vs veh, GMCL1 /// GMCL1P1 / RFU, AEBP2 / Fold change vs veh, AEBP2 / RFU, SNHG1 /// SNORD22 /// SNORD25 /// SNORD26 /// SNORD27 /// SNORD28 /// SNORD29 /// SNORD31 / Fold change vs veh, SNHG1 /// SNORD22 /// SNORD25 /// SNORD26 /// SNORD27 /// SNORD28 /// SNORD29 /// SNORD31 / Fold change (Aza/veh), C12orf56 (ProbeSet 11735607_a_at) / Fold change (ACY-1035/veh), C12orf56 (ProbeSet 11735607_a_at) / Fold change (Aza/veh), FGFR1OP (ProbeSet 11751329_s_at) / Fold change (ACY-1035/veh), FGFR1OP (ProbeSet 11751329_s_at) / Fold change (Aza/veh), VPS36 (ProbeSet 11739960_a_at) / Fold change (ACY-1035/veh), VPS36 (ProbeSet 11739960_a_at) / RFU SYPL1 (11715823_x_at) / Fold change /veh SYPL1 (11715823_x_at) / RFU IGFBP7 (11715501_s_at) / Fold change /veh IGFBP7 (11715501_s_at) / RFU REEP3 (11722064_at) / Fold change /veh REEP3 (11722064_at) / RFU IGLL1 (11728026_x_at) / Fold change /veh IGLL1 (11728026_x_at): dose or concentration left out as unconfirmed
Details: ProbeSet 11753234_a_at; LIST B

Nc1ncn([C@@H]2O[C@H](CO)[C@@H](O)[C@H]2O)c(=O)n1 [azacitidine]
Fold change vs veh, TAMM41: 0.86
